Measured values taken from patent US12384852B2, “Genetically modified NK-92 cells having a safety switch” (ImmunityBio, Inc., priority 2015, dated 2025).

What was measured:
[1] = clinical studies; cited from earlier work
NK-92-TK-CD16-IL-2 cells = test: Functionality of the TK suicide gene: ganciclovir treatment of mice carrying NK-92-TK-CD16-IL-2 cells; format: in vivo, SCID mice; conditions: ganciclovir 50 μg i.p. every other day, two or three doses; within 24 hours to 72 hours
Procedure: The mice in the first group are treated with two or three doses of ganciclovir (50 μg) intraperitoneally every other day. The mice in the second group are treated with placebo. […] Expansion of NK-92-TK-CD16-IL-2 cells continues to increase over time in mice treated with placebo.

Row | Structure (SMILES) | tolerability [1] | change in NK-92-TK-CD16-IL-2 cells (NK-92-TK-CD16-IL-2 cells)
1 | CC[C@H](C(=O)N1CCCC[C@H]1C(=O)O[C@H](CCc1ccc(OC)c(OC)c1)c1cccc(OCC(=O)NCCNC(=O)COc2cccc([C@@H](CCc3ccc(OC)c(OC)c3)OC(=O)[C@@H]3CCCCN3C(=O)[C@@H](CC)c3cc(OC)c(OC)c(OC)c3)c2)c1)c1cc(OC)c(OC)c(OC)c1 [AP1903] | well tolerated | –
2 | Nc1nc(O)c2ncn(COC(CO)CO)c2n1 [ganciclovir] | – | significant reduction
